{
  "source": "patent US7989587B2",
  "about": "“SSX-2 peptides presented by HLA class II molecules” (Ludwig Institute for Cancer Research Ltd., priority 1999, dated 2011)",
  "system": "SSX-2 specific CD4^+ T cells",
  "test": "Intracellular IFN-γ staining of CD4+ T cells from patient LAU672 after stimulation with SSX-2 peptide submixtures or single peptides",
  "assay_type": "cell-based, human",
  "conditions": "representative CD4+ T cell clone, FIG. 2A",
  "description": "Generation of SSX-2 specific CD4^+ T cells. In vitro sensitization of CD4^+ T cells was carried out as described previously for CD8^+ T cells. Briefly, 1 to 2×10^6 CD4^+ T cells highly enriched from peripheral blood mononuclear cells (PBMC) by magnetic cell sorting using a miniMACS device (Miltenyi Biotec, Sunnyvale, Calif., USA) were stimulated with a mixture containing peptides spanning the entire SSX-2 protein sequence (Ayyoub et al, J Immunol 2002. 32:2292-2299) (2 μM each) in the presence of irradiated autologous cells from the CD4^− fraction in CTL medium containing rhIL-2 (10 U/ml) and IL-7 ([…]). The enriched CD4^+ T cells were cultured 2-3 weeks prior to being tested. CD4^+ T cells secreting cytokines in response to peptide stimulation were isolated by cytokine guided flow cytometry cell sorting using the cytokine secretion detection kit (Miltenyi Biotec) and cloned by limiting dilution culture in the presence of PHA (Sigma), allogenic irradiated PBMC and rhIL-2 as described (Valmori et al., 2001, Cancer Res. 61:501-512). Clones were subsequently expanded by periodic (3-4 weeks) stimulation under the same conditions.\nAs recombinant SSX-2 protein became available, we initiated a study to identify CD4^+ T cell epitopes. To that purpose, we prepared monocyte-derived dendritic cells (DC) from patient LAU672 by isolating CD 14+ monocytes from PBMC by magnetic cell sorting. The obtained population (containing >95% CD14^+ cells) was cultured in CTL medium containing 1,000 U/ml of rhGM-CSF and 1,000 U/ml of rhIL-4 during 6 days. At the end of the culture period, DC were incubated with recombinant SSX-2 protein for 12 hours and used to stimulate autologous CD4^+ T cells isolated from PBMC by magnetic cell sorting.\nTwo weeks after stimulation, culture aliquots were tested using either a pool containing all SSX-2 overlapping peptides or submixtures, each composed of 3 peptides (P1-3, P4-6 etc., FIG. 1). […]\nThe presence of specific CD4^+ T cells was monitored by intracellular staining with INF-γ specific antibodies (FIG. 1A). […]",
  "data": [
    {"sequence": "WEKMKASEKIFYVYMKRKYEAM (SSX-2 peptide) [SSX-2 37-58]", "values": [
      {"measurement": "reactivity to single peptides in the submixture P4-6", "value": "active peptide"}
    ]}
  ]
}
